Here are results for 43 molecules from ChEMBL document CHEMBL3871292, “Evaluation of dipeptide nitriles as inhibitors of rhodesain, a major cysteine protease of Trypanosoma brucei” (Bioorg Med Chem Lett, 2017).

A word on the inhibition: it is the percentage by which the read-out fell short of the control. Usually Ki stands for the equilibrium dissociation constant of an inhibitor or competing ligand from its target.

Data set [1] has as its system Trypanosoma brucei. The experiment in a line: Inhibition of Trypanosoma brucei rhodesain using Cbz-Phe-Arg-AMC as substrate at 20 uM by fluorescence-based assay.
Data set [2] concerns Trypanosoma brucei brucei. The experiment in a line: Antitrypanosomal activity against Trypanosoma brucei brucei BS449 measured after 24 hrs using ATPlite-1 reagent by cell based luciferase reporter gene assay. The settings on record: BS449, 24 h. The format is functional.
The subject of data set [3] is Trypanosoma brucei brucei. The data set can be described thus: Antitrypanosomal activity against Trypanosoma brucei brucei BS449 measured after 72 hrs using ATPlite-1 reagent by cell based luciferase reporter gene assay. It counts as functional. (Cellular ATP, detected with luciferase, serves as a proxy for viable cell number.)
Data set [4] has as its system Trypanosoma brucei brucei. The experiment in a line: Antitrypanosomal activity against Trypanosoma brucei brucei Trypanosoma brucei brucei BS449 measured after 48 hrs using ATPlite-1 reagent by cell based luciferase reporter gene assay. It counts as functional. The note with it: BS449, 48 h.
Data set [5] in a line: Inhibition of Trypanosoma brucei rhodesain using Cbz-Phe-Arg-AMC as substrate by fluorescence-based assay.
The nature of data set [6]: Stability of the compound in HMI-9 medium measured after 48 hrs. The format is physicochemical.
Data set [7] deals with Trypanosoma brucei. The experiment in a line: Inhibition of Trypanosoma brucei rhodesain using Cbz-Phe-Arg-AMC as substrate at 0.05 to 20 uM by fluorescence-based assay. The note with it: TDE = time-dependent effect.
Data set [8] can be described thus: Competitive inhibition of Trypanosoma brucei rhodesain in presence of varying levels of Cbz-Phe-Arg-AMC substrate by Cheng-Prusoff equation analysis.
The nature of data set [9]: Selectivity index, ratio of Ki for human cathepsin L to Ki for competitive inhibition of Trypanosoma brucei rhodesain.
Data set [10] can be described thus: Inhibition of Trypanosoma brucei rhodesain using 10 uM of Cbz-Phe-Arg-AMC as substrate by Cheng-Prusoff equation analysis.
The target of the next data set is Procathepsin L (Homo sapiens, UniProt P07711). The data set can be described thus: Inhibition of human cathepsin L using Z-Phe-Arg-pNA as substrate measured after 10 to 80 mins by spectrophotometric method.
A short description of data set [11]: Solubility of the compound in PBS. It counts as physicochemical. The settings on record: buffer.
Data set [12] is described as follows: Solubility of the compound in HMI-9 medium. It counts as physicochemical.
The mark [13] stands for this setting: Trypanosoma brucei, BS449, 72 h, read-out: EC50.
[14] abbreviates: Trypanosoma brucei, BS449, 72 h, read-out: pEC50 (converted).

Some results are limits rather than exact numbers.

Procathepsin L, sequence (P07711 whole entry): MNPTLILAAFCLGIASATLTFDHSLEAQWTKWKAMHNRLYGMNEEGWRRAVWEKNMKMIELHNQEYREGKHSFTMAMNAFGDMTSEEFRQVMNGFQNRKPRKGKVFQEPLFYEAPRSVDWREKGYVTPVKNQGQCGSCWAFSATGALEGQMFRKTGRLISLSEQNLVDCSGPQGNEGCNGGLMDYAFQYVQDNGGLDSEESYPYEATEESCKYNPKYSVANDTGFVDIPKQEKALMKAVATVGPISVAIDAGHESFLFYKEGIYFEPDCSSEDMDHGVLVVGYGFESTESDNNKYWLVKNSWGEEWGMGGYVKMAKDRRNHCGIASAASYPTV

Regarding `CC(C)CS(=O)(=O)CC(NC(=O)c1cc2ccsc2s1)C(=O)NCC#N` (racemic), the inhibition in the data set with Trypanosoma brucei [1] is 25%.
Turning to `N=C(NCCCCCCNC(=N)NC(=N)Nc1ccc(Cl)cc1)NC(=N)Nc1ccc(Cl)cc1` [CHLORHEXIDINE], the EC50 was 440 nM in data set [2] (read-out: EC50); 441 nM in [2] (read-out: pEC50 (converted)); 349 nM in [3] (setting [13]); 350 nM in [3] (setting [14]); 321 nM in data set [4] (read-out: EC50); 321 nM in data set [4] (read-out: pEC50 (converted)).
`CC(C)(C)OC(=O)N[C@@H](Cc1cccc(F)c1)C(=O)NCC#N` yielded an inhibition with Trypanosoma brucei [1] of more than 50%. In data set [5], this molecule yielded a Ki of 73.8 nM.
In turn, `CC(C)(C)OC(=O)N[C@@H](COCc1ccccc1)C(=O)NCC#N` displayed an inhibition in the data set with Trypanosoma brucei [1] of more than 50%. Besides, the Ki in data set [5] came out at 950 nM.
For `N#CCNC(=O)[C@H](Cc1ccccc1)NC(=O)OCc1ccccc1`, in data set [6], the Stability result was “Unstable”. In the data set with Trypanosoma brucei [1], this molecule registered an inhibition of more than 50%. Further, the EC50 was 63000 nM in data set [2] (read-out: EC50), “Nd(Unstable)” in [3] and 79000 nM in data set [4] (read-out: EC50). For the same molecule, the inhibition constant Ki in [5] was 42 nM.
Molecule `CC(C)[C@H](NC(=O)OC(C)(C)C)C(=O)NCC#N` yielded an inhibition in the data set with Trypanosoma brucei [1] of more than 50%. Further, in data set [5], the affinity corresponds to a Ki of 1490 nM.
With `CC(C)(C)OC(=O)N[C@@H](Cc1ccsc1)C(=O)NCC#N`, the inhibition with Trypanosoma brucei [1] is more than 50%. This molecule came in with a Ki in [5] of 387 nM.
`CC(C)CS(=O)(=O)CC(NC(=O)c1cccs1)C(=O)NCC#N` (racemic) showed an inhibition with Trypanosoma brucei [1] of 9%.
With `CC[C@H](C)[C@H](NC(=O)OC(C)(C)C)C(=O)NCC#N`, the inhibition in the data set with Trypanosoma brucei [1] was more than 50%. This molecule showed a Ki in data set [5] of 1470 nM.
`N#CCNC(=O)[C@H](Cc1ccc(O)cc1)NC(=O)OCc1ccccc1`: the inhibition in the data set with Trypanosoma brucei [1] was more than 50%. For the same molecule, in data set [5], the inhibition constant (Ki) came out at 44.6 nM.
Take `CC(C)(C)OC(=O)N[C@@H](CC1CCCCC1)C(=O)NCC#N`: the inhibition in the data set with Trypanosoma brucei [1] is more than 50%. In data set [5], this molecule displayed a Ki of 68 nM.
Consider `CSCC[C@H](NC(=O)OC(C)(C)C)C(=O)NCC#N`, for which, in the data set on Trypanosoma brucei [1], the inhibition is more than 50%. The molecule further displayed a Ki in data set [5] of 1170 nM.
As to `CC(C)(C)OC(=O)N[C@@H](CC1CC1)C(=O)NCC#N`, the inhibition in the data set with Trypanosoma brucei [1] was found to be 30%.
On the same count and under the same terms, next, `CC(C)CS(=O)(=O)CC(NC(=O)c1ccc(-c2ccccc2)s1)C(=O)NCC#N` (racemic): 37%.
`CC(C)(C)OC(=O)N[C@@H](Cc1ccc(O)cc1)C(=O)NCC#N` returned an inhibition with Trypanosoma brucei [1] of more than 50%. In [5], this molecule had a Ki of 47 nM.
In the data set on Trypanosoma brucei [1], `CC(C)(C)OC(=O)N[C@@H](Cc1ccc(F)cc1)C(=O)NCC#N` came in with an inhibition of more than 50%. In addition, the EC50 in data set [2] (read-out: EC50) is 169000 nM; in [3] (setting [13]) it was 217000 nM; in data set [3] (setting [14]) it was 217000 nM; in data set [4] (read-out: EC50), 105000 nM. Besides, affinity in data set [5] was put at a Ki of 43.8 nM.
In turn, `COc1ccc(C[C@H](NC(=O)OCc2ccccc2)C(=O)NCC#N)cc1` came in with an inhibition in the data set with Trypanosoma brucei [1] of more than 50%. The same molecule registered a Ki in data set [5] of 26 nM.
On to `CC(C)(C)OC(=O)N[C@@H](Cc1cccc(Br)c1)C(=O)NCC#N`, for which the inhibition with Trypanosoma brucei [1] was more than 50%. The same molecule displayed a Ki in [5] of 27.6 nM.
In the case of `N#CCNC(=O)[C@H](Cc1cccc(Br)c1)NC(=O)c1ccc(-c2ccccc2)cc1`, the inhibition result was “Tde” in the data set on Trypanosoma brucei [7] and more than 50% in the data set on Trypanosoma brucei [1]. Further, the values for the Ki in data set [8] and in data set [10] were 2.6 nM and 9.2 nM, respectively. The Ratio Ki in [9] turned out to be 200.
In turn, `CC(C)CS(=O)(=O)CC(NC(=O)c1cc2ccccc2s1)C(=O)NCC#N` (racemic) gave an inhibition in the data set on Trypanosoma brucei [1] of 15%.
Consider `CC(C)CS(=O)(=O)CC(NC(=O)c1ccc(-c2cccs2)cc1)C(=O)NCC#N` (racemic), for which the inhibition in the data set with Trypanosoma brucei [1] was 25%.
For `CC(C)(C)OC(=O)N[C@@H](Cc1ccc(-c2ccccc2)cc1)C(=O)NCC#N`, the inhibition in the data set on Trypanosoma brucei [1] is more than 50%. Also, in data set [5], the Ki was determined as 52 nM.
Take `CC(C)(C)OC(=O)N[C@@H](Cc1c[nH]c2ccccc12)C(=O)NCC#N`: in the data set on Trypanosoma brucei [1], the inhibition was more than 50%. The same molecule yielded a Ki in data set [5] of 125 nM.
For `CC(C)C[C@H](NC(=O)Nc1ccc(-c2noc(-c3cccs3)n2)cc1)C(=O)NCC#N`, in that order: more than 50% and 172 nM.
In the data set on Trypanosoma brucei [1], `N#CCNC(=O)C1(NC(=O)OCc2ccccc2)CCCCC1` gave an inhibition of 22%. The same molecule displayed a Ki at Procathepsin L of more than 5000 nM.
`CC(C)(C)OC(=O)N[C@H](C(=O)NCC#N)c1ccccc1` came in with an inhibition with Trypanosoma brucei [1] of more than 50%. Besides, the Ki in data set [5] is 795 nM.
With `CC(C)CS(=O)(=O)CC(NC(=O)c1ccc(-c2cccs2)s1)C(=O)NCC#N` (racemic), in the data set on Trypanosoma brucei [1], the inhibition is more than 50%. This molecule displayed a Ki in data set [5] of 900 nM.
For the molecule `CC(C)(C)OC(=O)N[C@@H](Cc1ccccc1)C(=O)NCC#N`, the inhibition in the data set with Trypanosoma brucei [1] was more than 50%. In data set [5], this molecule returned a Ki of 55 nM.
With `CC(C)C[C@H](NC(=O)c1ccc(-c2noc(-c3cccs3)n2)cc1)C(=O)NCC#N`, the figures for the inhibition result with Trypanosoma brucei [7] and in the data set on Trypanosoma brucei [1] were “Tde” and more than 50%, respectively. Also, the EC50 was 8000 nM in data set [2] (read-out: EC50), 6000 nM in data set [3] (setting [13]), 6190 nM in [3] (setting [14]) and 10000 nM in data set [4] (read-out: EC50). For the same molecule, the figures for the Ki in data set [8] and in data set [10] were 5.3 nM and 9.2 nM, respectively. Further, the solubility entry in data set [11] and in data set [12] was “Insoluble” throughout. Besides, in data set [9], the Ratio Ki was 200.
Molecule `CC(C)(C)OC(=O)N[C@@H](Cc1ccco1)C(=O)NCC#N` displayed an inhibition in the data set with Trypanosoma brucei [1] of more than 50%. For the same molecule, the Ki in data set [5] came to 615 nM.
Turning to `N#CCNC(=O)C1(NC(=O)c2ccc(-c3noc(-c4cccs4)n3)cc2)CCCCC1`, the inhibition in the data set with Trypanosoma brucei [1] is more than 50%. In addition, the Ki was more than 5000 nM at Procathepsin L and 1540 nM in data set [5].
With `CC(C)CS(=O)(=O)CC(NC(=O)c1cc(-c2ccccc2)cs1)C(=O)NCC#N` (racemic), the inhibition in the data set on Trypanosoma brucei [1] was more than 50%. Besides, the Ki in data set [5] came to 820 nM.
`CC(C)CS(=O)(=O)CC(NC(=O)c1ccc(-c2nnn[nH]2)s1)C(=O)NCC#N` (racemic) gave an inhibition in the data set with Trypanosoma brucei [1] of 16%.
Regarding `CC(C)(C)OC(=O)N[C@@H](Cc1csc2ccccc12)C(=O)NCC#N`, in the data set with Trypanosoma brucei [1], the inhibition was more than 50%. This molecule displayed a Ki in data set [5] of 90 nM.
On to `CC(C)(C)OC(=O)N[C@@H](Cc1ccc(Br)cc1)C(=O)NCC#N`, for which the results for the inhibition result in the data set with Trypanosoma brucei [7] and with Trypanosoma brucei [1] were “Tde” and more than 50%, respectively. For the same molecule, the EC50 in data set [2] (read-out: EC50) is 43000 nM; in data set [3] (setting [13]) it was 129000 nM; in data set [3] (setting [14]), 130000 nM; in data set [4] (read-out: EC50), 104000 nM. This molecule also had a Ki in [5] of 12.3 nM.
`CN(C)c1cccc2c(S(=O)(=O)NC3(C(=O)NCC#N)CCCCC3)cccc12` returned an inhibition in the data set on Trypanosoma brucei [1] of 11%.
In the case of `CCN(CC)c1ccc2cc(C(=O)NC3(C(=O)NCC#N)CCCCC3)c(=O)oc2c1`, the inhibition in the data set on Trypanosoma brucei [1] was more than 50%. The molecule further registered a Ki in [5] of 790 nM.
Molecule `CCCC[C@H](NC(=O)OC(C)(C)C)C(=O)NCC#N` gave an inhibition in the data set on Trypanosoma brucei [1] of more than 50%. In [5], this molecule gave a Ki of 750 nM.
As to `CC[C@H](NC(=O)OC(C)(C)C)C(=O)NCC#N`, the inhibition in the data set on Trypanosoma brucei [1] was 10%.
Molecule `CC(C)CS(=O)(=O)CC(NC(=O)c1ccc(-c2ccsc2)s1)C(=O)NCC#N` (racemic) came in with an inhibition in the data set with Trypanosoma brucei [1] of 29%.
`CC(C)(C)OC(=O)N[C@H](CC(=O)NC#N)Cc1ccccc1` registered an inhibition in the data set on Trypanosoma brucei [1] of more than 50%. The molecule further had a Ki in data set [5] of 1270 nM.
Regarding `CC(C)(C)OC(=O)N[C@@H](Cc1ccccc1F)C(=O)NCC#N`, the Stability entry in [6] is given as “Unstable”. Further, the inhibition in the data set on Trypanosoma brucei [1] is more than 50%. Further, the EC50 in [2] (read-out: EC50) is 77000 nM; in [3], “Nd(Unstable)”; in data set [4] (read-out: EC50), 70000 nM. Moreover, in [5], the Ki turned out to be 49.2 nM.
For `CN(C)c1cccc2c(S(=O)(=O)N[C@@H](Cc3ccccc3)C(=O)NCC#N)cccc12`, the inhibition in the data set on Trypanosoma brucei [1] was more than 50%. In addition, in [5], the Ki is 413 nM.
